One data set addresses rat DP2 (Rattus norvegicus (Rat), UniProt Q6XKD3). Briefly: In vitro DP2/CRTH2 radioligand ([3H]PGD2) membrane binding assay. To be noted: average. On the procedure: (§1) Example 15: In Vitro DP2/CRTH2 Binding Assay
(§2) The ability of Compound 1 to bind to the human DP2 receptor was assessed via a radioligand binding assay using [^3H]PGD2. HEK293 cells stably expressing recombinant human DP2 are resuspended in 10 mM Hepes, 7.4 containing 1 mM DTT, lysed and centrifuged at 75,000×g to pellet the membranes. The membranes are resuspended in 10 mM Hepes, 7.4 containing 1 mM DTT and 10% glycerol to approximately 5 mg protein/ml. Membranes (2-10 μg protein/well) are incubated in 96-well plates with 1 nM [^3H]PGD2 and Compound 1 in Assay Buffer (50 mM Hepes, 10 mM MnCl2, 1 mM EDTA, plus or minus 0.2% human serum albumin, pH 7.4) for 60 minutes at room temperature. The reactions are terminated by rapid filtration through Whatman GF/C glass fibre filter plates. The filter plates were pre-soaked in 0.33% polythylenimine for 30 minutes at room temperature then washed in Wash Buffer (50 mM Hepes, 0.5 M NaCl pH 7.4) prior to harvesting. After harvesting, the filter plates are washed 3 times with 1 ml cold Wash Buffer then dried. Scintillant is then added to the plates and the radioactivity retained on the filters is determined on a Packard TopCount (Perkin Elmer). Specific binding is determined as total radioactive binding minus non-specific binding in the presence of 10 μM PGD2. IC50s were determined using GraphPad prism analysis of drug titration curves. Mouse, rat and guinea pig DP2 receptors were also investigated.
(§3) The binding potency of Compound 1 is only slightly shifted in the presence of species-specific serum albumin.

In the next data set the target is mouse DP2 (Mus musculus (Mouse), UniProt Q9Z2J6). The description is as above. To be noted: average. On the procedure:
as §1, §2, §3

A short description of data set [1]: Plasma concentrations in mouse smoke model. Format: in vivo. The protocol:
BALB/c mice were exposed to the smoke of 7 unfiltered cigarettes per day via whole-body exposure on days 0, 1, and 2 for a total of 1.75 hours per day. […] The plasma concentrations for Compound 1 measured at trough were 85 and 588 nM at 10 mg/kg and 50 mg/kg, respectively.

Data set [2] addresses T1, DP2 receptor (Homo sapiens (Human), UniProt Q9Y5Y4). Kind of data set: In vitro whole blood eosinophil shape change (ESC) assay, PGD2-induced. Format: cell-based. The protocol: Example 17: In Vitro Whole Blood Esoinophil Shape Change Assay
Compound 1 was evaluated in a whole blood assay of eosinophil shape change (ESC) to determine the ability of Compound 1 to antagonize a PGD2-stimulated functional response in the context of whole blood.
Blood is drawn from consenting human volunteers in EDTA vacutainer tubes and used within 1 hr of draw. A 98 μl aliquot of blood is mixed with 2 μl of Compound 1 (in 50% DMSO) in 1.2 ml polypropylene tubes. The blood is vortexed and incubated at 37° C. for 5 minutes. 5 μl of 1 μM PGD2 in PBS is added for a final concentration of 50 nM and the tubes briefly vortexed. The reactions are incubated for exactly 5 minutes at 37° C. and then terminated by placing the tubes on ice and immediately adding 250 μl of ice-cold 1:4 diluted Cytofix (BD Biosciences). The reactions are transferred to […] polystyrene round bottom tubes and the red blood cells lysed by the addition of 3 ml ammonium chloride lysing solution (150 mM NH4C1, 10 mM KHCO3, 0.1 mM EDTA disodium salt) and incubation at room temperature for 15 minutes. The cells are pelleted by spinning at 1300 rpm for 5 minutes at 4° C. and washed once with 3 ml ice-cold PBS. The cells are resuspended in 0.2 ml of ice-cold 1:4 diluted Cytofix (BD Biosciences) and analyzed on a FACSCalibur (BD Biosciences) within 2 hours. Eosinophils were gated on the basis of autofluorescence in the FL2 channel and shape change on 500 eosinophils was assayed by forward scatter and side scatter analysis. The specific change in shape induced by PGD2 was calculated as the difference between the percentage of high forward scatter eosinophils in the presence and absence of PGD2. IC50s were determined using Graphpad Prism® analysis of drug titration curves.

Data set [3] deals with T2, CYP2C9 (Homo sapiens (Human), UniProt P11712). In kind it is in vitro ADME. To be noted: human hepatocytes, 10 μM.
T2 sequence (P11712 whole entry): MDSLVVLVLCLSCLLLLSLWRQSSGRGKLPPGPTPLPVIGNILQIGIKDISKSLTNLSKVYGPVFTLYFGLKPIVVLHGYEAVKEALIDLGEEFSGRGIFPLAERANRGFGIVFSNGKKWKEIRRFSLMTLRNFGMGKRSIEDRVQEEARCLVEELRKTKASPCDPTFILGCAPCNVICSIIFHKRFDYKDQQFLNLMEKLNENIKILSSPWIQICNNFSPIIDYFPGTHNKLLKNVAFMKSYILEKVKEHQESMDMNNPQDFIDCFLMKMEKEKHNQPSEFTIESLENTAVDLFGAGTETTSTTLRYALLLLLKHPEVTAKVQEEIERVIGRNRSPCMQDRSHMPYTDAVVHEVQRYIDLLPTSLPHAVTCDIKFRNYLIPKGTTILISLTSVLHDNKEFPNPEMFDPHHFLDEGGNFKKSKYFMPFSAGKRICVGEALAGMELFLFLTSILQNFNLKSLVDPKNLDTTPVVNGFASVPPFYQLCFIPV
Another data set deals with CYP2D6 (Homo sapiens (Human), UniProt P10635). Kind of data set: Extracellular cytochrome P450 inhibition (microsomes). In kind it is in vitro ADME. To be noted: 2D6, dextromethorphan O-demethylation.
CYP2D6, sequence (P10635 whole entry): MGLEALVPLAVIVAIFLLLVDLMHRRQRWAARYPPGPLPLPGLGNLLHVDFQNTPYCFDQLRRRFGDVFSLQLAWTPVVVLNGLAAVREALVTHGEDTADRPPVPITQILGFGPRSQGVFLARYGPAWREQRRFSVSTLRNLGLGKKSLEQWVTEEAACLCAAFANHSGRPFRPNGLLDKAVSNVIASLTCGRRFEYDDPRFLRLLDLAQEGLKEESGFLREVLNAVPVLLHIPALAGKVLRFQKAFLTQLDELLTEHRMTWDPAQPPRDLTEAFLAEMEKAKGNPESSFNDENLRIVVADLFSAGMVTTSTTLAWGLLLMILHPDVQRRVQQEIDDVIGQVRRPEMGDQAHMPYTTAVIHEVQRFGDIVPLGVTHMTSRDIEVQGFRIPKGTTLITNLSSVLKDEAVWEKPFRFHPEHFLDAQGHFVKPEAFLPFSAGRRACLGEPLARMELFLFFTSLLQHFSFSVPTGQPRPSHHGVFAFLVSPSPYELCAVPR
Data set [4] is described as follows: Regional dosing study in rat (pharmacokinetics). Format: in vivo. To be noted: for Tmax / AUC / Cmax / bioavailability / half-life: Sprague-Dawley, in vivo. From the text:
Example 11: Regional Dosing Study
Male Sprague-Dawley rats (weighing from about 200 to about 300 grams) in the fasted state received a single injection of a solution of Compound 2 (5% methocel) in the duodenum, jejunum or ileum. This was compared with PO administration of the same formulation of Compound 2. […]

Data set [5] addresses T2, CYP2C9. Briefly: Extracellular cytochrome P450 inhibition (microsomes). Format: in vitro ADME. To be noted: 2C9, diclofenac 4′-hydroxylation.
Data set [6] has as its target T1, DP2 receptor. Kind of data set: Phase I single ascending dose study, ex vivo PGD2-induced blood eosinophil shape change (ESC). Format: in vivo. To be noted: humans. On the procedure: Procedure Evaluate Effects of Compound 1 on Ex Vivo PGD2-Induced Blood Eosinophil Shape Change (ESC)
Pre dose blood is drawn and challenged with PGD2 to determine baseline shape change as described above in Example 17. At varying times after dosing blood is drawn for both pharmacokinetic analyses of drug concentration in blood, and also for PGD2 challenge and eosinophil shape change determination. The extent of receptor blockage is determined from the relationship between drug blood concentration and percentage inhibition of eosinophil shape change.

Counter-ions that a name gives are not always drawn. Like-named read-outs stand apart in the source and are kept apart here.

The IC50 is the concentration needed to halve the response being measured. What is called IC90 is the concentration needed for an effect of 90%. Lower therefore signals greater potency. Usually Tmax stands for the time at which the peak concentration occurs. As a reminder, the AUC is concentration integrated over time. A low value points to low exposure. By Cmax is commonly meant the peak of the concentration-time curve. As usually defined, the bioavailability is dose-corrected exposure relative to a reference, in per cent. Low values mean poor availability, high ones good availability. What is called half-life is the time needed for the level to fall by half in the phase considered. The low end stands for rapid decline, the high end for slow decline.

T1 sequence (Q9Y5Y4 whole entry): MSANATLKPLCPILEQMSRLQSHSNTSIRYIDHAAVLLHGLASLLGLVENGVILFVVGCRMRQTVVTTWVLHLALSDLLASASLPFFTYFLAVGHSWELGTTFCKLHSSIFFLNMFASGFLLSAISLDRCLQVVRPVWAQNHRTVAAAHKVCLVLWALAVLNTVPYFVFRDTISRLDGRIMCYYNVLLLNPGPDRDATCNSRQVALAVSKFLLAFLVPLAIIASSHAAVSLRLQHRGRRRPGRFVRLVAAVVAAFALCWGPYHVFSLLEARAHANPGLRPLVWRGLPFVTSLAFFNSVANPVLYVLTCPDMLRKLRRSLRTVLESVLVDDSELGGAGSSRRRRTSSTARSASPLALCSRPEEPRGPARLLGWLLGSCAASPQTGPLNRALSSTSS
rat DP2, sequence (Q6XKD3 whole entry): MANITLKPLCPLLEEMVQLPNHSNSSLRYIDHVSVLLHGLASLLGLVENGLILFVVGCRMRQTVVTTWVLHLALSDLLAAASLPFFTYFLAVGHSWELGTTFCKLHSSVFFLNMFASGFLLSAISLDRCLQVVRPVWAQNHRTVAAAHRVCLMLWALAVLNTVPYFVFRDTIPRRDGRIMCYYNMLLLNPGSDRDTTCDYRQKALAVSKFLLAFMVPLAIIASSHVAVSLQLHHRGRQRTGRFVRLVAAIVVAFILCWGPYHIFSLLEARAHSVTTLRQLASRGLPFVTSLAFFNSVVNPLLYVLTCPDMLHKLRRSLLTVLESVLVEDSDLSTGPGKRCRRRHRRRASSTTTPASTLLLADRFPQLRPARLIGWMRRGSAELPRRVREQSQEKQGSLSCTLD
mouse DP2, sequence (Q9Z2J6 whole entry): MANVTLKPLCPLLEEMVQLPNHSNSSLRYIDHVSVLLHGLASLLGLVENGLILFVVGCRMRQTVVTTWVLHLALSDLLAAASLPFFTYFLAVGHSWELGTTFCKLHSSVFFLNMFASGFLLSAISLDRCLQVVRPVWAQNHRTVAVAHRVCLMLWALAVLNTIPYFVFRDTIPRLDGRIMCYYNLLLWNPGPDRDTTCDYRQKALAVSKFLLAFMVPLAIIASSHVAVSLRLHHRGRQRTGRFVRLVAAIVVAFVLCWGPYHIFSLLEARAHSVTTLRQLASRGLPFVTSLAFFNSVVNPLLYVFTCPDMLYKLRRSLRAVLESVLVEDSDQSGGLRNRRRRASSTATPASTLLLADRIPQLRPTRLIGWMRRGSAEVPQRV

Turning to `COc1ccc(CC(=O)O)cc1Oc1ccc(NC(=O)C(C)(C)C)cc1CSC(C)(C)C` [Compound 1, 2-(3-(2-((tert-butylthio)methyl)-4-(2,2-dimethyl-propionylamino)phenoxy)-4-methoxyphenyl)acetic acid], the IC50 is 10.4 nM at rat DP2 (0.2% species-specific albumin, read-out: IC50, radioligand membrane binding on rat DP2); 7 nM on rat DP2 (without serum albumin, read-out: IC50, inhibition of radiolabeled PGD2 binding to rat DP2); 11.4 nM at mouse DP2 (0.2% species-specific albumin, read-out: IC50, radioligand membrane binding on mouse DP2); 9.7 nM at mouse DP2 (without serum albumin, read-out: IC50, inhibition of radiolabeled PGD2 binding to mouse DP2); 1.5 nM at DP2 receptor [2] (average, 50 nM PGD2, read-out: IC50, PGD2-induced eosinophil shape change in human whole blood); 1.52 nM at DP2 receptor [2] (same value expressed in ng/mL, read-out: IC50, human ESC (converted)). For the same molecule, the “plasma concentration for Compound 1 at trough” value worked out at 85 nM in [1] (10 mg/kg PO daily) and 588 nM in data set [1] (50 mg/kg PO daily). Besides, the IC90 at DP2 receptor [2] was 5.5 nM; against DP2 receptor [2] (same value expressed in ng/mL), 2.6 ng/mL. Also, the “induction of CYP2C9” value on CYP2C9 [3] is “not a strong inducer”.
`COc1ccc(CC(=O)O)cc1Oc1ccc(NC(=O)C(C)(C)C)cc1CSC(C)(C)C` [Compound 2, 2-(3-(2-((tert-butylthio)methyl)-4-(2,2-dimethyl-propionylamino)phenoxy)-4-methoxyphenyl)acetic acid, sodium salt]: the IC50 on CYP2D6 and against CYP2C9 [5] was above 50000 nM in each case. The time to peak (Tmax) in [4] (iv, 2 mg/kg) was 0.08 h; in [4] (male, 10 mg/kg, duodenum) it was 0.25 h; in data set [4] (male, 10 mg/kg, ileum) it was 0.63 h; in data set [4] (male, 10 mg/kg, jejunum), 0.25 h; in data set [4] (male, po, 10 mg/kg) it was 0.75 h. In addition, the area under the curve (AUC) was found to be 5010 ng·h/mL in [4] (male, 10 mg/kg, duodenum); 1980 ng·h/mL in data set [4] (male, 10 mg/kg, ileum); 8110 ng·h/mL in [4] (male, 10 mg/kg, jejunum); 3670 ng·h/mL in data set [4] (male, iv, 2 mg/kg); 4370 ng·h/mL in [4] (male, po, 10 mg/kg). Moreover, the highest concentration (Cmax) in [4] (male, 10 mg/kg, duodenum) came to 4310 ng/mL; in data set [4] (male, 10 mg/kg, ileum) it was 610 ng/mL; in [4] (male, 10 mg/kg, jejunum), 12700 ng/mL; in [4] (male, po, 10 mg/kg), 3060 ng/mL. The bioavailability was found to be 27.3% in data set [4] (male, 10 mg/kg, duodenum); 10.8% in [4] (male, 10 mg/kg, ileum); 44.2% in [4] (male, 10 mg/kg, jejunum); 23.8% in [4] (male, po, 10 mg/kg). The half-life is 4.12 h in data set [4] (male, 10 mg/kg, duodenum); 5.06 h in data set [4] (male, 10 mg/kg, ileum); 5.29 h in [4] (male, 10 mg/kg, jejunum); 2 h in data set [4] (male, iv, 2 mg/kg); 1.5 h in data set [4] (male, po, 10 mg/kg). Further, in data set [4] (regional dosing), the site of absorption result is given as “preferentially absorbed in the jejunum”. Also, at DP2 receptor [6] (500 mg single dose, 24 hr), the “24 hr PD response (inhibition of ex vivo ESC)” value is around 50%. Further, at DP2 receptor [6] (>150 mg, at 0.5, 2 hr and 8 hr), the “pharmacodynamic dose response (ex vivo ESC inhibition)” value is on record as “maximal inhibition achieved”.
